Assay [1] deals with T1, cloned human 5-HT1A receptors (Homo sapiens, UniProt P08908).
T1 construct: expressed in transfected cells; host or cells: HeLa cells (HA7)
T1 sequence (P08908 1-422): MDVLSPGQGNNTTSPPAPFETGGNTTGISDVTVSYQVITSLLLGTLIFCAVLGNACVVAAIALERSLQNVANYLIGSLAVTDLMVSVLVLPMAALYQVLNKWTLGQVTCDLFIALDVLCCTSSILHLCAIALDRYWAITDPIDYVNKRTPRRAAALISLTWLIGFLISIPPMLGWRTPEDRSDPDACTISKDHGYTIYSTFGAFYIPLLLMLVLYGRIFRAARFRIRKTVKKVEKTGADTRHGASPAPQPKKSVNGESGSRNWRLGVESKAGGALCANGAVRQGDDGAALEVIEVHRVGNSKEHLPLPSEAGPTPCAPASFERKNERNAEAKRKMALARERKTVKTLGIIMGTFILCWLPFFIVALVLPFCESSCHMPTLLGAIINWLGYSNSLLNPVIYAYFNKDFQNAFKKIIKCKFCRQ
In words: Inhibition of 3H-5-CT binding to human 5-HT1A receptors. The following applies: cloned human 5-HT1A receptors in HeLa cells (HA7). Summed up: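 Cloned human 5-HT1A receptors stably expressed in transfected HeLa cells (HA7); 40 μg cell homogenate incubated 15 min at 37° C in 50 mM Tris pH 7.7 with 3H-5-CT. Non-specific binding defined with 10 μM metergoline; bound radioligand separated by rapid GF/B filtration and counted.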

Assay [2] has as its target T2, human cloned dopamine D4.2 receptors (Homo sapiens, UniProt P21917, DEL265-296).
T2 construct: expressed in transfected cells; host or cells: CHO cells
T2 sequence (P21917 with tags, fused parts or gaps DEL265-296): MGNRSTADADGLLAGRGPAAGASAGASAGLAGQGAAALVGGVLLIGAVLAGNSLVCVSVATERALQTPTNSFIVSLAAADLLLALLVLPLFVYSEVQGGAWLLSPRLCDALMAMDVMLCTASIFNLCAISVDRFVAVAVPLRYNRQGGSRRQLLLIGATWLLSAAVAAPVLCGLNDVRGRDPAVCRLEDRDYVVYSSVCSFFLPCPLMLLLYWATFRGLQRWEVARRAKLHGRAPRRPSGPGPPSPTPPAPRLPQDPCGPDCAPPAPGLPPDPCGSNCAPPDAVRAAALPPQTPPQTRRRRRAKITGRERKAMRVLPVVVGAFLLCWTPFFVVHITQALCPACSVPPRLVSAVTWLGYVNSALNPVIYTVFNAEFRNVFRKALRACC
In words: Inhibition of the binding of 3H-YM-09151-2 to human dopamine D4 receptors. The following applies: human cloned dopamine D4.2 receptors in CHO-cells. Summed up:
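Radioligand displacement of [3H]YM-09151-2 (0.06 nM) from membranes of CHO cells expressing cloned human D4.2 receptors, measured in vitro.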

Turning to `COc1ccc(SCCN2CCN(c3cccc4c3OCCO4)CC2)cc1OC` [Compound 7bg, 1-(2,3-Dihydro-benzo[1,4]dioxin-5-yl)-4-[2-(3,4-dimethoxy-phenylsulfanyl)-ethyl]-piperazine], in assay [1] (at 100 nM), the inhibition at 0.1 µM was determined as 81%. For the same compound, the inhibition at 0.05 µM in assay [2] (at 50 nM) amounted to 64%.

Regarding `CC1(C)Cc2cc(Cl)cc(N3CCN(CCCSc4c(Cl)cccc4Cl)CC3)c2O1` [Compound 5az, 1-(5-Chloro-2,2-dimethyl-2,3-dihydro-benzofuran-7-yl)-4-[3-(2,6-dichloro-phenylsulfanyl)-propyl]-piperazine], in assay [1] (at 100 nM), the inhibition at 0.1 µM came out at 18%. In addition, the half-inhibitory concentration (IC50) in assay [2] amounted to 9.9 nM.

For the compound `Cc1ccccc1SCCCCN1CCN(c2cccc3c2OCCO3)CC1` [Compound 7bc, 1-(2,3-Dihydro-benzo[1,4]dioxin-5-yl)-4-(4-o-tolylsulfanyl-butyl)-piperazine], in assay [1] (at 100 nM), the inhibition at 0.1 µM was 82%. For the same compound, in assay [2] (at 50 nM), the inhibition at 0.05 µM was found to be 96%.

For `Cc1cc(F)ccc1OCCCN1CCN(c2ccc(C#N)c3c2OCCO3)CC1` [Compound 6a, 8-{4-[3-(4-Fluoro-2-methyl-phenoxy)-propyl]-piperazin-1-yl}-2,3-dihydro-benzo[1,4]dioxine-5-carbonitrile], the IC50 in assay [1] came out at 120 nM; in assay [2] it was 6.9 nM.

As to `Fc1cc(Br)c(OCCCCN2CCN(c3cccc4c3OCCO4)CC2)c(Br)c1` [Compound 5by], the IC50 in assay [1] was determined as 2.5 nM; in assay [2], 4.3 nM.

For the compound `Fc1ccc(SCCCCN2CCN(c3cccc4c3OCCO4)CC2)c(Cl)c1` [Compound 7bi, 1-[4-(2-Chloro-4-fluoro-phenylsulfanyl)-butyl]-4-(2,3-dihydrobenzo[1,4]dioxin-5-yl)-piperazine], the inhibition at 0.1 µM in assay [1] (at 100 nM) amounted to 96%. The inhibition at 0.05 µM in assay [2] (at 50 nM) amounted to 101%.

In assay [1], `Cc1ccc(SCCN2CCN(c3cccc4c3OCCO4)CC2)c(C)c1` [Compound 7ad, 1-(2,3-Dihydro-benzo[1,4]dioxin-5-yl)-4-[2-(2,4-dimethyl-phenylsulfanyl)-ethyl]-piperazine] displayed an IC50 of 21 nM. The inhibition at 0.05 µM in assay [2] (at 50 nM) was determined as 91%.

Turning to `CC1(C)Cc2cc(Cl)cc(N3CCN(CCCCOc4ccc(F)cc4Cl)CC3)c2O1` [Compound 5bd, 1-(5-Chloro-2,2-dimethyl-2,3-dihydro-benzofuran-7-yl)-4-[4-(2-chloro-4-fluoro-phenoxy)-butyl]-piperazine], the IC50 in assay [1] came to 52 nM; in assay [2] it was 6.5 nM.

`CC1(C)COc2c(N3CCN(CCCOc4c(Cl)cc(S(C)(=O)=O)cc4Cl)CC3)cc(Cl)cc21` [Compound 5bi, 1-(5-Chloro-3,3-dimethyl-2,3-dihydro-benzofuran-7-yl)-4-[3-(2,6-dichloro-4-methanesulfonyl-phenoxy)-propyl]-piperazine]: the values for the IC50 in assay [1] and in assay [2] were 3.5 nM and 87 nM, respectively.

Take `Fc1cc(Cl)c(OCCCCN2CCN(c3cccc4c3OCCO4)CC2)c(Cl)c1` [Compound 5bp, 1-[4-(2,6-Dichloro-4-fluoro-phenoxy)-butyl]-4-(2,3-dihydro-benzo[1,4]dioxin-5-yl)-piperazine]: the IC50 came to 4.8 nM in assay [1] and 6.2 nM in assay [2].

`Clc1ccccc1SCCCN1CCN(c2cccc3c2OCCO3)CC1` [Compound 5cd, 1-[3-(2-Chloro-phenylsulfanyl)-propyl]-4-(2,3-dihydro-benzo[1,4]dioxin-5-yl)-piperazine]: the IC50 in assay [1] is 8.8 nM; in assay [2] it was 2.3 nM.

Regarding `C=CCc1ccccc1OCCCCN1CCN(c2cccc3c2OCCO3)CC1` [Compound 7bp, 1-[4-(2-Allyl-phenoxy)-butyl]-4-(2,3-dihydro-benzo[1,4]dioxin-5-yl)-piperazine], the inhibition at 0.1 µM in assay [1] (at 100 nM) was found to be 92%. Moreover, in assay [2] (at 50 nM), the inhibition at 0.05 µM was 99%.

`Fc1cc(Cl)c(OCCCN2CCN(c3cccc4c3OCCO4)CC2)c(Cl)c1` [Compound 5at, 1-[3-(2,6-Dichloro-4-fluoro-phenoxy)-propyl]-4-(2,3-dihydro-benzo[1,4]dioxin-5-yl)-piperazine]: the values for the IC50 in assay [1] and in assay [2] were 2.2 nM and 3.4 nM, respectively.

Take `Cc1cccc(Cl)c1SCCCCN1CCN(c2cc(Cl)cc3c2OCC3(C)C)CC1` [Compound 5ay, 1-(5-Chloro-3,3-dimethyl-2,3-dihydro-benzofuran-7-yl)-4-[4-(2-chloro-6-methyl-phenylsulfanyl)-butyl]-piperazine]: the inhibition at 0.1 µM in assay [1] (at 100 nM) was found to be 14%. The compound also gave an IC50 in assay [2] of 12 nM.

With `Clc1ccc(SCCCCN2CCN(c3cccc4c3OCCO4)CC2)cc1Cl` [Compound 7an, 1-[4-(3,4-Dichloro-phenylsulfanyl)-butyl]-4-(2,3-dihydro-henzo[1,4]dioxin-5-yl)-piperazine], the “Inhibition of 3H-5-CT Binding % inhibition at 100 nM” value in assay [1] (at 100 nM) amounted to 100%. Also, the “Inhibition of 3H-YM-09151-2 binding % inhibition at 50 nM” value in assay [2] (at 50 nM) stood at 91%.

For `Fc1cc(F)c(OCCCN2CCN(c3cccc4ccsc34)CC2)c(Br)c1` [Compound 5bt, 1-Benzo[h]thiophen-7-yl-4-[3-(2-bromo-4,6-difluoro-phenoxy)-propyl]-piperazine], the IC50 in assay [1] amounted to 8.6 nM; in assay [2] it was 6.3 nM.

On to `Clc1cccc(SCCCN2CCN(c3cccc4c3OCCO4)CC2)c1Cl` [Compound 7al, 1-[3-(2,3-Dichloro-phenylsulfanyl)-propyl]-4-(2,3-dihydro-benzo[1,4]dioxin-5-yl)-piperazine], for which the inhibition at 0.1 µM in assay [1] (at 100 nM) turned out to be 98%. Moreover, the inhibition at 0.05 µM in assay [2] (at 50 nM) turned out to be 97%.

Take `Clc1ccc(Cl)c(SCCCN2CCN(c3cccc4c3OCCO4)CC2)c1` [Compound 7ay, 1-[3-(2,5-Dichloro-phenylsulfanyl)-propyl]-4-(2,3-dihydro-benzo[1,4]dioxin-5-yl)-piperazine]: the IC50 in assay [1] amounted to 2 nM. Moreover, the inhibition at 0.05 µM in assay [2] (at 50 nM) was determined as 102%.

Turning to `CCc1ccccc1OCCN1CCN(c2cccc3c2OCCO3)CC1` [Compound 7ag, 1-(2,3-Dihydro-benzo[1,4]dioxin-5-yl)-4-[2-(2-ethyl-phenoxy)-ethyl]-piperazine], in assay [1] (at 100 nM), the inhibition at 0.1 µM is 79%. Also, in assay [2] (at 50 nM), the inhibition at 0.05 µM amounted to 88%.

For `Fc1cc(Br)cc(F)c1OCCCCN1CCN(c2cccc3ccsc23)CC1` [Compound 5cc, 1-Benzo[b]thiophen-7-yl-4-[4-(4-bromo-2,6-difluoro-phenoxy)-butyl]-piperazine], the IC50 came out at 9.7 nM in assay [1] and 34 nM in assay [2].

As to `Fc1cc(F)c(OCCCN2CCN(c3cccc4c3OCCO4)CC2)c(F)c1` [Compound 1c, 1-(2,3-Dihydro-benzo[1,4]dioxin-5-yl)-4-[3-(2,4,6-trifluoro-phenoxy)-propyl]-piperazine], the IC50 in assay [1] stood at 2 nM; in assay [2], 13 nM.

`N#Cc1ccccc1OCCCN1CCN(c2cccc3c2OCCO3)CC1` [Compound 2d, 2-{3-[4-(2,3-Dihydro-benzo[1,4]dioxin-5-yl)-piperazin-1-yl]-propoxy}-benzonitrile]: the IC50 worked out at 15 nM in assay [1] and 1.7 nM in assay [2].

As to `COc1ccc(OC)c(SCCCN2CCN(c3cccc4c3OCCO4)CC2)c1` [Compound 7bk, 1-(2,3-Dihydro-benzo[1,4]dioxin-5-yl)-4-[3-(2,5-dimethoxy-phenylsulfanyl)-propyl]-piperazine], the inhibition at 0.1 µM in assay [1] (at 100 nM) is 91%. Further, in assay [2] (at 50 nM), the inhibition at 0.05 µM is 84%.

Regarding `Clc1cccc(Cl)c1SCCCN1CCN(c2cccc3c2OCCO3)CC1` [Compound 5aw, 1-[3-(2,6-Dichloro-phenylsulfanyl)-propyl]-4-(2,3-dihydro-benzo[1,4]dioxin-5-yl)-piperazine], the figures for the IC50 in assay [1] and in assay [2] were 1.7 nM and 1.9 nM, respectively.

Take `N#Cc1ccc(N2CCN(CCCOc3c(Cl)cccc3Cl)CC2)c2c1OCCO2` [Compound 5cl, 8-{4-[3-(2,6-Dichloro-phenoxy)-propyl]-piperazin-1-yl}-2,3-dihydro-benzo[1,4]dioxine-5-carbonitrile]: the inhibition at 0.1 µM in assay [1] (at 100 nM) was determined as 83%. Moreover, the inhibition at 0.05 µM in assay [2] (at 50 nM) stood at 42%.

`Clc1cccc(Cl)c1SCCN1CCN(c2cccc3c2OCCO3)CC1` [Compound 3d, 1-[2-(2,6-Dichloro-phenylsulfanyl)-ethyl]-4-(2,3-dihydro-benzo[1,4]dioxin-5-yl)-piperazine]: the IC50 was 31 nM in assay [1] and 11 nM in assay [2].

In the case of `Clc1ccc(Cl)c(SCCCCN2CCN(c3cccc4c3OCCO4)CC2)c1` [Compound 7bd, 1-[4-(2,5-Dichloro-phenylsulfanyl)-butyl]-4-(2,3-dihydro-benzo[1,4]dioxin-5-yl)-piperazine], in assay [1] (at 100 nM), the inhibition at 0.1 µM stood at 84%. Also, the inhibition at 0.05 µM in assay [2] (at 50 nM) was found to be 102%.

The term inhibition denotes the relative decrease from the control value, in per cent. What is called IC50 is the concentration needed to halve the response being measured. A higher IC50 goes with weaker potency in that assay.

The values above are taken from patent US20030050306A1, “Novel heteroaryl derivatives, their preparation and use” (H. Lundbeck A/S, priority 1999, published 2003).
